Source: the CheMixHub viscosity set

Assay: xn = mol fraction of the nth substance listed

CC(C)CCC[C@@H](C)[C@H]1CC[C@H]2[C@@H]3CC=C4C[C@@H](O)CC[C@]4(C)[C@H]3CC[C@]12C + Cc1ccccc1
viscosity [mPa·s], 101.33 kPa
Details | x1 = 0.0038 | x1 = 0.00638 | x1 = 0.01075 | x1 = 0.01353 | x1 = 0.01707 | x1 = 0.02159 | x1 = 0.02737 | x1 = 0.03485
298 K | 0.567 | 0.579 | 0.604 | 0.616 | 0.639 | 0.672 | 0.716 | 0.787
303 K | 0.534 | 0.546 | 0.569 | 0.579 | 0.599 | 0.628 | 0.668 | 0.731
313 K | 0.478 | 0.488 | 0.508 | 0.515 | 0.533 | 0.556 | 0.591 | 0.64
323 K | 0.432 | 0.44 | 0.458 | 0.464 | 0.476 | 0.497 | 0.523 | 0.562

CCCCCCCCCCO + Cc1ccccc1
viscosity [mPa·s], 101 kPa
Details | 298.15 K | 308.15 K
x2 = 0.0507 | 10.3 | 7.108
x2 = 0.1015 | 9.101 | 6.203
x2 = 0.1473 | 8.207 | 5.499
x2 = 0.2091 | 7.146 | 4.673
x2 = 0.2577 | 6.303 | 4.079
x2 = 0.3006 | 5.584 | 3.647
x2 = 0.3496 | 4.913 | 3.173
x2 = 0.4028 | 4.195 | 2.786
x2 = 0.4516 | 3.678 | 2.398
x2 = 0.4989 | 3.222 | 2.122
x2 = 0.5497 | 2.797 | 1.832
x2 = 0.6009 | 2.439 | 1.569
x2 = 0.6498 | 2.13 | 1.393
x2 = 0.7065 | 1.819 | 1.159
x2 = 0.7524 | 1.537 | 1.047
x2 = 0.8069 | 1.308 | 0.858
x2 = 0.8472 | 1.071 | 0.798
x2 = 0.9063 | 0.807 | 0.687
x2 = 0.953 | 0.608 | 0.585

Cc1ccccc1C + Cc1ccccc1
viscosity [mPa·s], 101.33 kPa
Details | x2 = 0.3003 | x2 = 0.3607 | x2 = 0.5223 | x2 = 0.6669 | x2 = 0.8205
293.15 K | 0.722 | 0.708 | 0.67 | 0.64 | 0.616
303.15 K | 0.636 | 0.626 | 0.601 | 0.567 | 0.546
313.15 K | 0.568 | 0.557 | 0.528 | 0.508 | 0.489
323.15 K | 0.507 | 0.5 | 0.472 | 0.456 | 0.441
